Source: patent publication US10000469B2, “Heat shock protein 70 (hsp-70) receptor ligands” (Duke University, priority 2014, dated 2018)

Key:
[1] = target: T1, GFP-Hsp70i (Homo sapiens, UniProt P0DMV8); experiment: FLECS elution of GFP-Hsp70i from γ-phosphate-linked ATP resin; assay type: binding; details: compared with HS-71
T1 construct: host or cells: HEK 293T
Method: FLECS Screen: A pEGFP-tagged Hsp70i was (plasmid 15215, Addgene, Cambridge, Mass.) used in the FLECS assay and was originally cloned according to [Zeng et al. (2004). Hsp70 dynamics in vivo: effect of heat shock and protein aggregation. Journal of cell science 117, 4991-5000]. ATP used in the assay was purchased from Sigma (St. Louis, Mo.) and a 200 mM stock was prepared with low salt buffer (150 mM NaCl, 25 mM Tris, pH 7.5, 60 mM MgCl2). The γ-phosphate ATP sepharose was synthesized as previously described and stored in low salt buffer [Haystead et al. (1993). Gamma-phosphate-linked ATP-sepharose for the affinity purification of protein kinases. Rapid purification to homogeneity of skeletal muscle mitogen-activated protein kinase kinase. European journal of biochemistry/FEBS 214, 459-467]. FuGENE 6 transfection reagent (Roche, Mannheim, Germany) was used for transfection of GFP-Hsp70i into HEK 293T cells, following the manufacturer protocol. The transfection ensued for 48 hours, upon which time the cells were harvested and lysed in cell lysis buffer (150 mM NaCl, 50 mM Tris, pH 7.5, 1% Triton X-100, 1 mM EDTA, 1 mM DTT, and 1 tablet Complete Mini protease inhibitor (Roche)). Cell lysates were stored at −80° C. until further use. Upon binding the resin lysates were washed 3× with high stringency wash buffer (1 M NaCl, 25 mM Tris, pH 7.5, 60 mM MgCl2, 1 mM DTT) and 3× with low stringency wash buffer (150 mM NaCl, 25 mM Tris, pH 7.5, 60 mM MgCl2, 1 mM DTT). […]
Assembly of a focused library, consisting of 3379 purine like compounds, was described previously [Carlson et al. (2013). Fluorescence Linked Enzyme Chemoproteomic Strategy for Discovery of a Potent and Selective DAPK1 and ZIPK Inhibitor. […] The lysates were eluted from the filter plate onto a catch plate by centrifugation and the fluorescence of the eluates was measured. […] Next, the presence of GFP-Hsp70i in the eluates from the 197 primary hits was determined by Western blot. […]

[2] = target: T2, Hsc70 (Homo sapiens, UniProt P11142); experiment: Thermofluor assay, purified Hsc70; assay type: binding; details: ±ATP
T2 construct: His tag (cleaved yes); made in house
Method: Protein Purification: Plasmids were provided for human HSPA1A, HSPA8, and HSPA1A C306D. Plasmids were transformed in Rosetta competent cells and single colonies were picked from streaked LB/ampicillin/chloramphenicol plates. Cultures were grown at 37° C. for 4-6 hours, were cooled to 15° C. and expression was induced overnight with 200 uM isopropyl 1-thio-β-D-galactopyranoside. Cells were pelleted and resuspended in Ni-lysis buffer (50 mM Na2HPO4, 300 mM NaCl, 10 mM Imidazole, 0.05% Tween-20) supplemented with Complete Mini protease inhibitor tablets (Roche, Mannheim, Germany) and […], and then sonicated. The cells were again pelleted and the supernatant was incubated with complete His-Tag purification resin (Roche, Mannheim, Germany) for 5 hours at 4° C. The resin was washed with Ni-wash buffer (50 mM Na2HPO4, 300 mM NaCl, 20 mM Imidazole, 0.05% Tween-20) and eluted with Ni-elution buffer (50 mM Na2HPO4, 300 mM NaCl, 250 mM Imidazole, 0.05% Tween-20). […]
Thermofluor Assay: SYPRO orange (Molecular Probes, Eugene, Oreg.) was diluted 1:1000 in 25 mM HEPES, 5 mM MgCl2, 10 mM KCl (pH 7.5) and purified Hsp70i, Hsc70, Hsp70i C306, or Hsp90, was then added to a final dilution of 0.04 mg/ml. […] A melt curve protocol (25° C. to 90° C., increasing 0.5° C. and a plate reading every 30 seconds) was run on a CFX384 Touch™ Real-Time PCR Detection System (BioRad). […]

[3] = tested on: caspase-3/7; experiment: Caspase 3/7 assay in cancer cells; assay type: cell-based
Method: Caspase 3/7 Assay: The Amplite™ Fluorimetric Caspase3/7 assay kit (AAT Bioquest, Sunnyvale, Calif.) was used per the manufacturer's instructions. Briefly, a fluorometric indicator, Ac-DEVD-AMC, was used to determine caspase activity. […] Cells were seeded at 60,000 cells/well in a 96 well plate and treated with compound for the indicated period of time. Diluted caspase 3/7 assay solution was added to each well and incubated at room temperature for 2 hours protected from light, upon which time fluorescence was measured on the Victor X2 plate reader (Perkin Elmer, Waltham, Mass.).

T2 sequence (P11142 whole entry): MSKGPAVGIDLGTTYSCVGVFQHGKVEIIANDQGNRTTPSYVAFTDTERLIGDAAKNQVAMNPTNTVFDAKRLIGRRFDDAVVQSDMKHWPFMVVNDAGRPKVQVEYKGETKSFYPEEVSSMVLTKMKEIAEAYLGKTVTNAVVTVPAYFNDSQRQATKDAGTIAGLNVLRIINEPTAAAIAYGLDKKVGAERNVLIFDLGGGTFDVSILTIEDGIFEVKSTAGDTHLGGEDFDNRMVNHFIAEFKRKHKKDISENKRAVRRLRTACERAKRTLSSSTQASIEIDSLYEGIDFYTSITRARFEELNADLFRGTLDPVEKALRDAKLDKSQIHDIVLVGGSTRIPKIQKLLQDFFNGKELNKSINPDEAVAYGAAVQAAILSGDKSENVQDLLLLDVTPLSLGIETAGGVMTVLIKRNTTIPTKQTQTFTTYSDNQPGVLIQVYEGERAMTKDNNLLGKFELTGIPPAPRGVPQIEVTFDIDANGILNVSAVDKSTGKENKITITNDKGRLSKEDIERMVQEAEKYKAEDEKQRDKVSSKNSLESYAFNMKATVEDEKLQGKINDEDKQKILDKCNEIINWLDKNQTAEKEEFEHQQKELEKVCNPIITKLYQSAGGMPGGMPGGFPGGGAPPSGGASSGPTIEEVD
T1 sequence (P0DMV8 whole entry): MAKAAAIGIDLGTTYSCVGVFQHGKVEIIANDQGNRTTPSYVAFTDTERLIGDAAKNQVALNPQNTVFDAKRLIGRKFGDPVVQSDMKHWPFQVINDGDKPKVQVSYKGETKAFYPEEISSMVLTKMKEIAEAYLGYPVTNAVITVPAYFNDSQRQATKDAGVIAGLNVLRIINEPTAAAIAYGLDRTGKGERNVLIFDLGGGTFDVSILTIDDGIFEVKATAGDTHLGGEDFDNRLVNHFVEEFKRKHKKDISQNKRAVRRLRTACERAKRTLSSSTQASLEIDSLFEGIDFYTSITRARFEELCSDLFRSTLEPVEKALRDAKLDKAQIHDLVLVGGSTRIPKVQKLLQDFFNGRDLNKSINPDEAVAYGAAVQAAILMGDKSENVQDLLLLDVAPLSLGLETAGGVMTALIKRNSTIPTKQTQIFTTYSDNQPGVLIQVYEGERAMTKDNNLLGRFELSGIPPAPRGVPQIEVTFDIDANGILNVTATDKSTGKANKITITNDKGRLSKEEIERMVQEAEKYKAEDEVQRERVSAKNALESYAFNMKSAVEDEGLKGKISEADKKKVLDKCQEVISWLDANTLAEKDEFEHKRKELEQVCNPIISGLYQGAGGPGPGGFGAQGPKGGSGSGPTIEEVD

## CCCn1c(NC(=O)[C@H]2CCCN(c3cnccn3)C2)nc2ccccc21 [HS-72, (S)—N-(1-propyl-1H-benzo[d]imidazol-2-yl)-1-(pyrazin-2-yl)piperidine-3-carboxamide]
[1]
  elution of GFP-Hsp70 from the ATP resin, S vs. R enantiomer: more effective
[2]
  effect on Tm of Hsc70: does not change
[3]; 6 hours and 24 hours, dose dependent
  caspase activation: reproducible across several cancer cell lines
[3]; various cancer cells
  caspase activation: inducing caspase activation in a dose dependent manner
